How the values were obtained:
[1] = tested on: Escherichia coli ATCC 25922; assay: Minimum inhibitory concentration (MIC), CLSI broth micro-dilution, E. coli; format: cell-based; details: Escherichia coli, ATCC25922, 22 h, Table 6, cation adjusted Mueller Hinton Broth + 0.002% Tween-80, 35° C.
In short: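 Colonies grown 20 h at 35° C on Trypticase Soy agar (MRSA) or Luria agar (E. coli) were suspended in cation-adjusted Mueller Hinton broth with 0.002% Tween-80. Suspensions were added at OD600 0.0005 to 10-point twofold compound dilutions, then incubated 22 h at 35° C.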

[2] = tested on: Methicillin Resistant Staphylococcus aureus strain USA 200; assay: Minimum inhibitory concentration (MIC), CLSI broth micro-dilution, S. aureus; format: cell-based; details: Staphylococcus aureus, MRSA / USA200; Table 6; MRSA USA 200; cation adjusted Mueller Hinton Broth + 0.002% Tween-80; 35° C., 22 hours
Method: In vitro antimicrobial activity of each compound was determined by measuring minimal inhibitor concentrations (MICs) using the broth micro-dilution technique as approved by the Clinical and Laboratory Standards Institute (CLSI) (Methods for Dilution Antimicrobial Susceptibility Tests for Bacteria that Grow Aerobically; Approved Standard-Eighth Edition. CLSI document M07-A8. Wayne, PA: Clinical and Laboratroy Standards; 2009). Antibacterial activity was measure against two strains of bacteria: a Methicillin Resistant Staphylococcus aureus strain USA 200, (S. aureus) and Escherichia coli ATCC 25922 (E. coli), a clinically relevant Gram-negative strain. Cells were inoculated onto plates of Trypyticase Soy Agar or Luria Agar respectively and grown at 35° C. for 20 hours. Inocula suspensions were prepared by scraping cells into 1 mL of testing media (cation adjusted Mueller Hinton Broth supplemented with 0.002% v/v Tween-80) and diluting to a final OD600nm of 0.01.
Test compounds were prepared in DMSO at a concentration of 10 mg/mL. In protocol 1, the compound stocks were diluted into testing media at a concentration of 64 µg/ml and serial 2-fold dilutions were made in the same media, in 96-well U bottom microtiter dishes, for a total of 10 compound concentrations. In protocol 2, the compound stocks were diluted into testing media at a concentration of 4 µg/mL and serial 2-fold dilutions were made in the same media, in 96-well U bottom microtiter dishes, for a total of 10 compound concentrations. In protocol 3, compound stocks were diluted into testing media at a concentration of 0.5 μg/mL, with serial 2-fold dilutions conducted as described above. In protocol 4, compound stocks were diluted into testing media at a concentration of […], with serial 2-fold dilutions conducted as described above. Inocula suspensions were added to the 2-fold serial dilutions of test compounds to a final density of GD OD600nm of 0.0005 and incubated at 35° C. for 22 hours.

Row | MIC [1] | MIC [2] | SMILES
1 | 0.19 µM | 0.047 µM | Cc1nc(-c2ccc3c(c2)OCCC32CC2)nc(C)c1C(=O)N[C@@H](CCN)C(=O)N(C)[C@@H]1C(=O)N[C@@H](C)C(=O)N[C@H](C(=O)NCC#N)Cc2ccc(OCCN)c(c2)-c2cc1ccc2OCCN (racemic) [Compound 285, rac-(8S,11S,14S)-3,18-bis(2-aminoethoxy)-N-(cyanomethyl)-11-methyl-14-[methyl-[rac-(2S)-4-amino-2-[(4,6-dimethyl-2-spiro[chromane-4,1′-cyclopropane]-7-yl-pyrimidine-5-carbonyl)amino]butanoyl]amino]-10,13-dioxo-9,12-diazatricyclo[13.3.1.12,6]icosa-1(18),2(20),3,5,15(19),16-hexaene-8-carboxamide]
2 | 8 µM | 0.19 µM | Cc1nc(-c2ccc(C(C)(C)C)cc2)nc(C)c1C(=O)N[C@H](CO)C(=O)N[C@@H](CCN)C(=O)N(C)[C@@H]1C(=O)N[C@@H](C)C(=O)N[C@H](C(=O)NCC#N)Cc2ccc(OCCN)c(c2)-c2cc1ccc2OCCN (racemic) [Compound 467, rac-(8S,11S,14S)-3,18-bis(2-aminoethoxy)-N-(cyanomethyl)-11-methyl-14-[methyl-[rac-(2S)-4-amino-2-[[rac-(2R)-2-[[2-(4-tert-butylphenyl)-4,6-dimethyl-pyrimidine-5-carbonyl]amino]-3-hydroxy-propanoyl]amino]butanoyl]amino]-10,13-dioxo-9,12-diazatricyclo[13.3.1.12,6]icosa-1(18),2(20),3,5,15(19),16-hexaene-8-carboxamide]
3 | 0.38 µM | 0.031 µM | Cc1cc(C(=O)N[C@@H](CCN)C(=O)N(C)[C@@H]2C(=O)N[C@@H](C)C(=O)N[C@H](C(=O)NCC#N)Cc3ccc(OCCN)c(c3)-c3cc2ccc3OCCN)c(C)nc1-c1ccc(C(C)(C)C)cc1 (racemic) [Compound 402, rac-(8S,11S,14S)-3,18-bis(2-aminoethoxy)-N-(cyanomethyl)-11-methyl-14-[methyl-[rac-(2S)-4-amino-2-[[6-(4-tert-butylphenyl)-2,5-dimethyl-pyridine-3-carbonyl]amino]butanoyl]amino]-10,13-dioxo-9,12-diazatricyclo[13.3.1.12,6]icosa-1(18),2(20),3,5,15(19),16-hexaene-8-carboxamide]
4 | 0.38 µM | 0.063 µM | Cc1nc(-c2ccc(C(C)(C)C)cc2)c(N)cc1C(=O)N[C@@H](CCN)C(=O)N(C)[C@@H]1C(=O)N[C@@H](C)C(=O)N[C@H](C(=O)NCC#N)Cc2ccc(OCCN)c(c2)-c2cc1ccc2OCCN (racemic) [Compound 405, rac-(8S,11S,14S)-3,18-bis(2-aminoethoxy)-N-(cyanomethyl)-11-methyl-14-[methyl-[rac-(2S)-4-amino-2-[[5-amino-6-(4-tert-butylphenyl)-2-methyl-pyridine-3-carbonyl]amino]butanoyl]amino]-10,13-dioxo-9,12-diazatricyclo[13.3.1.12,6]icosa-1(18),2(20),3,5,15(19),16-hexaene-8-carboxamide]
5 | 14 µM | 0.84 µM | Cc1nc(C#CC(C)(C)C)nc(C)c1C(=O)N[C@@H](CCN)C(=O)N(C)[C@@H]1C(=O)N[C@@H](C)C(=O)N[C@H](C(=O)NCC#N)Cc2ccc(OCCN)c(c2)-c2cc1ccc2OCCN (racemic) [Compound 306, rac-(8S,11S,14S)-3,18-bis(2-aminoethoxy)-N-(cyanomethyl)-11-methyl-14-[methyl-[rac-(2S)-4-amino-2-[[2-(3,3-dimethylbut-1-ynyl)-4,6-dimethyl-pyrimidine-5-carbonyl]amino]butanoyl]amino]-10,13-dioxo-9,12-diazatricyclo[13.3.1.12,6]icosa-1(18),2(20),3,5,15(19),16-hexaene-8-carboxamide]
6 | 2.1 µM | 0.53 µM | Cc1nc(-c2ccc(C3(C)COC3)cc2)ncc1C(=O)N[C@@H](CCN)C(=O)N(C)[C@@H]1C(=O)N[C@@H](C)C(=O)N[C@H](C(=O)NCC#N)Cc2ccc(OCCN)c(c2)-c2cc1ccc2OCCN (racemic) [Compound 238, rac-(8S,11S,14S)-3,18-bis(2-aminoethoxy)-N-(cyanomethyl)-11-methyl-14-[methyl-[rac-(2S)-4-amino-2-[[4-methyl-2-[4-(3-methyloxetan-3-yl)phenyl]pyrimidine-5-carbonyl]amino]butanoyl]amino]-10,13-dioxo-9,12-diazatricyclo[13.3.1.12,6]icosa-1(18),2(20),3,5,15(19),16-hexaene-8-carboxamide]
7 | 0.064 µM | 0.008 µM | Cc1cc(-c2ccc(OCC(C)(C)C)cc2)nc(C)c1C(=O)N[C@@H](CCN)C(=O)N(C)[C@@H]1C(=O)N[C@@H](C)C(=O)N[C@H](C(=O)NCC#N)Cc2ccc(OCCN)c(c2)-c2cc1ccc2OCCN (racemic) [Compound 359, rac-(8S,11S,14S)-3,18-bis(2-aminoethoxy)-N-(cyanomethyl)-11-methyl-14-[methyl-[rac-(2S)-4-amino-2-[[6-[4-(2,2-dimethylpropoxy)phenyl]-2,4-dimethyl-pyridine-3-carbonyl]amino]butanoyl]amino]-10,13-dioxo-9,12-diazatricyclo[13.3.1.12,6]icosa-1(18),2(20),3,5,15(19),16-hexaene-8-carboxamide]
8 | 0.13 µM | 0.016 µM | CCCC1(Oc2ccc(-c3nc(C)c(C(=O)N[C@@H](CCN)C(=O)N(C)[C@@H]4C(=O)N[C@@H](C)C(=O)N[C@H](C(=O)NCC#N)Cc5ccc(OCCN)c(c5)-c5cc4ccc5OCCN)c(C)n3)cc2)CC1 (racemic) [Compound 346, rac-(8S,11S,14S)-3,18-bis(2-aminoethoxy)-N-(cyanomethyl)-11-methyl-14-[methyl-[rac-(2S)-4-amino-2-[[4,6-dimethyl-2-[4-(1-propylcyclopropoxy)phenyl]pyrimidine-5-carbonyl]amino]butanoyl]amino]-10,13-dioxo-9,12-diazatricyclo[13.3.1.12,6]icosa-1(18),2(20),3,5,15(19),16-hexaene-8-carboxamide]
9 | 0.065 µM | 0.016 µM | CCC1(c2ccc(-c3nc(C)c(C(=O)N[C@@H](CCN)C(=O)N(C)[C@@H]4C(=O)N[C@@H](C)C(=O)N[C@H](C(=O)NCC#N)Cc5ccc(OCCN)c(c5)-c5cc4ccc5OCCN)c(C)n3)cc2)CC1 (racemic) [Compound 281, rac-(8S,11S,14S)-3,18-bis(2-aminoethoxy)-N-(cyanomethyl)-11-methyl-14-[methyl-[rac-(2S)-4-amino-2-[[2-[4-(1-ethylcyclopropyl)phenyl]-4,6-dimethyl-pyrimidine-5-carbonyl]amino]butanoyl]amino]-10,13-dioxo-9,12-diazatricyclo[13.3.1.12,6]icosa-1(18),2(20),3,5,15(19),16-hexaene-8-carboxamide]

Row | SMILES | MIC [1] | MIC [2]
10 | CCCCCOc1ccc(-c2cc(C)c(C(=O)N[C@@H](CCN)C(=O)N(C)[C@@H]3C(=O)N[C@@H](C)C(=O)N[C@H](C(=O)NCC#N)Cc4ccc(OCCN)c(c4)-c4cc3ccc4OCCN)c(C)n2)cc1 (racemic) [Compound 362, rac-(8S,11S,14S)-3,18-bis(2-aminoethoxy)-N-(cyanomethyl)-11-methyl-14-[methyl-[rac-(2S)-4-amino-2-[[2,4-dimethyl-6-(4-pentoxyphenyl)pyridine-3-carbonyl]amino]butanoyl]amino]-10,13-dioxo-9,12-diazatricyclo[13.3.1.12,6]icosa-1(18),2(20),3,5,15(19),16-hexaene-8-carboxamide] | 0.25 µM | 0.063 µM
11 | Cc1nc(-c2ccc(OC3CCCCCC3)cc2)nc(C)c1C(=O)N[C@@H](CCN)C(=O)N(C)[C@@H]1C(=O)N[C@@H](C)C(=O)N[C@H](C(=O)NCC#N)Cc2ccc(OCCN)c(c2)-c2cc1ccc2OCCN (racemic) [Compound 340, rac-(8S,11S,14S)-3,18-bis(2-aminoethoxy)-N-(cyanomethyl)-11-methyl-14-[methyl-[rac-(2S)-4-amino-2-[[2-[4-(cycloheptoxy)phenyl]-4,6-dimethyl-pyrimidine-5-carbonyl]amino]butanoyl]amino]-10,13-dioxo-9,12-diazatricyclo[13.3.1.12,6]icosa-1(18),2(20),3,5,15(19),16-hexaene-8-carboxamide] | 0.063 µM | 0.023 µM

From US20260274892A1, “MACROCYCLIC BROAD SPECTRUM ANTIBIOTICS” (RQx Pharmaceuticals, Inc., priority 2017, published 2026)
